Data: ChEMBL document CHEMBL4373748, “Reinvestigation of Mycothiazole Reveals the Penta-2,4-dien-1-ol Residue Imparts Picomolar Potency and 8S Configuration” (ACS Med Chem Lett, 2020)
pIC50: −log10 of the molar value. Values belong to the compound of their own block, whether it stands above or below them.

Tests used:
HCT-116 = assay: Cytotoxicity against human HCT116 cells assessed as reduction in cell viability incubated for 3 days by tryphan blue dye based assay; assay type: functional; conditions: HCT-116, 72 h
PANC-1 = assay: Cytotoxicity against human PANC1 cells assessed as reduction in cell viability incubated for 3 days by tryphan blue dye based assay; assay type: functional; conditions: PANC-1, 72 h
[1] = Stability of compound in benzene-d6 by 1H-NMR analysis; assay type: physicochemical
HepG2 = assay: Cytotoxicity against human HepG2 cells assessed as reduction in cell viability incubated for 3 days by tryphan blue dye based assay; assay type: functional; conditions: HepG2, 72 h
[2] = (§1) Drug degradation assessed as methyl N-[(E)-8-[4-[(2E)-hexa-2,5-dienyl]-1,3-thiazol-2-yl]-3,7-dihydroxy-3-(hydroxymethyl)-8-methylnon-4-enyl]carbamate metabolite formation by measuring maximum absorbance units measured after preserving compound in amber vial containing 95% CH3CN and 5% H2O followed by drying using N2 stream and later punged-with argon in dark desiccator under vacuum for 24 hrs by ultraviolet-photoiodide array detection method; assay type: physicochemical
[3] = as §1, with “methanol” for “95% CH3CN and 5% H2O”, “air” for “N2”, “stream” for “stream and later punged-with argon in dark desiccator under vacuum”, “hrs at room temperature” for “hrs”; assay type: physicochemical
[4] = as §1, with “methanol” for “95% CH3CN and 5% H2O”, “stream” for “stream and later punged-with argon in dark desiccator under vacuum”, “hrs at room temperature” for “hrs”; assay type: physicochemical
[5] = as §1, with “followed by exposure to 4 degC” for “in dark desiccator under vacuum”; assay type: physicochemical
[6] = as §1, with “followed by exposure to direct light” for “and later punged-with argon in dark desiccator under vacuum”; assay type: physicochemical
[7] = as §1, with “relative abundance” for “measuring maximum absorbance units”, “LC-MS-TIC analysis” for “ultraviolet-photoiodide array detection method”; assay type: physicochemical
[8] = (§2) Drug degradation assessed as methyl N-[(E)-8-[4-[(2E)-hexa-2,5-dienyl]-1,3-thiazol-2-yl]-3,7-dihydroxy-3-(hydroxymethyl)-8-methylnon-4-enyl]carbamate metabolite formation by measuring relative abundance measured after preserving compound in amber vial containing methanol followed by drying using air stream for 24 hrs at room temperature by LC-MS-TIC analysis; assay type: physicochemical
[9] = as §2, with “N2” for “air”; assay type: physicochemical
[10] = as §1, with “relative abundance” for “maximum absorbance units”, “followed by exposure to 4 degC” for “in dark desiccator under vacuum”, “LC-MS-TIC analysis” for “ultraviolet-photoiodide array detection method”; assay type: physicochemical
[11] = as §2, with “95% CH3CN and 5% H2O” for “methanol”, “N2” for “air”, “stream followed by exposure to direct light” for “stream”, “hrs” for “hrs at room temperature”; assay type: physicochemical
[12] = Stability of compound assessed as shelf life measured after preserving compound in amber vial containing 95% CH3CN and 5% H2O followed by drying using N2 stream and later punged-with argon in dark desiccator under vacuum for 24 hrs; assay type: physicochemical
[13] = Stability of compound assessed as shelf life measured after preserving compound in amber vial containing 95% CH3CN and 5% H2O followed by drying using N2 stream and later punged-with argon followed by exposure to 4 degC for 24 hrs; assay type: physicochemical

Structure (SMILES): C=CC/C=C\Cc1csc(C(C)(C)[C@H](O)C/C=C/C(O)(CO)CCNC(=O)OC)n1 (stereo partly specified)
pIC50 (HCT-116): < 6.00

Stability [1]: >= 6 months
Structure (SMILES): C=CC/C=C/Cc1csc(C(C)(C)[C@@H](C/C=C\C(=C)CCNC(=O)OC)OC(C)=O)n1
pIC50 (PANC-1): 8.89

Structure (SMILES): C=CC/C=C\Cc1csc(C(C)(C)[C@H](O)CC2C=C(CCNC(=O)OC)CON2c2ccccc2)n1 (stereo partly specified)
pIC50 (PANC-1): < 6.00

Structure (SMILES): C=CC/C=C/Cc1csc(C(C)(C)[C@H](O)C/C=C\C(=C)CCNC(=O)OC)n1
pIC50 (PANC-1): 9.80 | pIC50 (HepG2): 9.57 | pIC50 (HCT-116): 9.46 | Drug degradation [2]: 500000 a.u. | Drug degradation [3]: 500000 a.u. | Drug degradation [4]: 500000 a.u. | Drug degradation [5]: 500000 a.u. | Drug degradation [6]: 280000 a.u. | Drug degradation [7]: 20% | Drug degradation [8]: 45% | Drug degradation [9]: 45% | Drug degradation [10]: 20% | Drug degradation [11]: 60% | Stability [12]: 3 to 6 weeks | Stability [13]: 3 to 6 weeks

Structure (SMILES): C=CC/C=C\Cc1csc(C(C)(C)C(=O)C/C=C\C(=C)CCNC(=O)OC)n1
pIC50 (PANC-1): 5.70

Structure (SMILES): C=CC/C=C\Cc1csc(C(C)(C)C(O)CC2C=C(CCNC(=O)OC)CN(c3ccccc3)O2)n1 (single isomer, unassigned)
pIC50 (PANC-1): < 6.00
